The subject of test [1] is Wnt activity (Sp5-Luc reporter, TCF/LEF binding sites) in SW480 colon carcinoma cells. Kind of test: Sp5-Luc Wnt reporter gene screening assay in SW480 colon carcinoma cells. Format: cell-based, human. Conditions: Homo sapiens. An excerpt:
The screening assay for Wnt activity is described as follows. Reporter cell lines can be generated by stably transducing cancer cell lines (e.g., colon cancer) or primary cells (e.g., IEC-6 intestinal cells) with a lentiviral construct that includes a Wnt-responsive promoter driving expression of the firefly luciferase gene.
SW480 colon carcinoma cells were transduced with a lentiviral vector expressing luciferase with a human Sp5 promoter consisting of a sequence of eight TCF/LEF binding sites. SW480 cells stably expressing the Sp5-Luc reporter gene and a hygromycin resistance gene were selected by treatment with 150 μg/ml of hygroinycin for 7 days. These stably transduced SW480 cells were expanded in cell culture and used for all further screening activities. For Sp5-Luc reporter gene assays, the cells were plated at 10,000 cells/well in 96-well plates with growth medium containing 10% fetal calf serum and incubated overnight at 37° C. and 5% CO2. Each compound was dissolved in DMSO as a 10 mM stock in standard j-vials and used to prepare compound source plates in dose-response format with 3-fold serial dilutions and a 10 mM top concentration. Compound transfer from serially diluted source plates to assay plates containing the cells was accomplished using a pintool (Multimek 96, Beckman equipped with V&P Scientific FP1S50H pins) based liquid handling protocol. This protocol used a slotted pin to transfer 50 nl of compound from a source plate well to an assay plate well containing 50 μl of cells in growth medium. […] Control wells received 50 nl of DMSO treatment for nommlization and calculating IC50 values. The treated cells were incubated at 37° C. and 5% CO2 for an additional forty-two hours. Following incubation, the growth medium was removed and 50 μl of BrightGlo luminescence reagent (Promega) was added to each well of the 96-well assay plates. The plates were placed on an orbital shaker for 5 min and then luminescence was quantified on the Victor3 (Perkin Elmer) plate reader. Readings were normalized to DMSO only treated cells, and normalized activities were utilized for IC50 calculations using the dose-response log (inhibitor) vs. response—variable slope (four parameters) nonlinear regression feature available in GraphPad Prism 5.0 or 6.0.
In general terms: A reporter such as luciferase makes a cellular process visible.

Test [2] has as its system primary human fibroblasts derived from IPF patients (LL29 cells). Description: Inhibition of the fibrotic process in TGF-β1-treated primary human fibroblasts from IPF patients (αSMA staining). The test is classed as cell-based. Conditions: Fibroblast, 96 h, TGF-β1 20 ng/mL, 4 days, read-out: Inhibition of fibrosis EC50. An excerpt:
The above synthesized compounds were screened using primary human fibroblasts (derived from IPF patients) treated with TGF-β1 to determine their ability to inhibit the fibrotic process.
Human Fibroblast Celt Culture: Primary human fibroblasts derived from IPF patients (LL29 cells) [^1Xiaoqiu Liu, et.al., “Fibrotic Luna Fibroblasts Show Blunted Inhibition by cAMP Due to Deficient cAMP Response Element-Binding Protein Phosphorylation”, Journal of Pharmacology and Experimental Therapeutics (2005), 315(2), 678-687; ^2Watts, K. L., et.al., “RhoA signaling modulates cyclin D1 expression in human lung fibroblasts; implications for idiopathic pulmonary fibrosis”, Respiratory Research (2006), 7(1), 88] were obtained from American Type Culture Collection (ATCC) and expanded in F12 medium supplemented with 15% Fetal Bovine Serum and Penicillin/Streptomycin.
Compound Screening: Each compound was dissolved in DMSO as a 10 mM stock and used to prepare compound source plates. Serial dilution (1:2, 11-point dose-response curves from 10 μM to […]) and compound transfer was performed using the ECHO 550 (Lahcyte, Sunnyvale, Calif.) into 384-well clear bottom assay plates (Greiner Bio-One) with appropriate DMSO backfill fhr a final DMSO concentration of 0.1%. LL29 cells were plated at 1,500 cells/well in 80 μl/well F12 medium supplemented with 1% Fetal Bovine Serum. One hour after addition of the cells. TGF-β1 (Peprotech; 20 ng/mL) was added to the plates to induce fibrosis (ref. 1 and 2 above), Wells treated with TGF-β1 and containing DMSO were used as controls. Cells were incubated at 37° C. and 5% CO2 for 4 days. Following incubation for 4 days, SYTOX green nucleic acid stain (Life Technologies [Thermo Fisher Scientific]) was added to the wells at a final concentration of 1 uM and incubated at room temperature for 30 min. Cells were then fixed using 4% formaldehyde (Electron Microscopy Sciences), washed 3 times with PBS followed by blocking and penneabilization using 3% Bovine Serum Albumin (BSA; Sigma) and 0.3% Triton X-100 (Sigma) in PBS. Cells were then stained with antibody specific to α-smooth muscle actin (αSMA; Abeam) (ref 1 and 2 above) in 3% Bovine Serum Albumin (BSA; Sigma) and 0.3% Triton X-100 (Sigma) in PBS, and incubated overnight at 4° C. Cells were then washed 3 times with PBS, followed by incubation with Alexa Flor-647 conjugated secondary antibody (Life Technologies [Thermo Fisher Scientific]) and DAPI at room temperature for 1 hour, Cells were then washed 3 times with PBS and plates were sealed for imaging. αSMA staining was imaged by excitation at 630 nm and emission at 665 nm and quantified using the Compartmental Analysis program on the CellInsight CX5 (Thermo Scientific). Dead or apoptotic cells were excluded from analysis based on positive SYTOX green staining. % of total cells positive for αSMA were counted in each well and normalized to the average of 11 wells treated with TGF-β1 on the same plate using Dotmatics' Studies Software. The normalized averages (fold change over untreated) of 3 replicate wells for each compound concentration were used to create dose-responses curves and EC50 values were calculated using non-linear regression curve fit in the Dotmatics' Studies Software. The EC50 values are reported.

What is called IC50 is the concentration at which inhibition is half-maximal. A higher IC50 goes with a need for much substance. One may read the EC50 as the concentration at which the effect is half-maximal. As for `CN(C)Cc1cncc(-c2cc3c(-c4nc5c(-c6cccc(F)c6)ccnc5[nH]4)n[nH]c3cn2)c1` [Compound 13, 1-(5-(3-(7-(3-Fluorophenyl)-3H-imidazo[4,5-b]pyridin-2-yl)-1H-pyrazolo[3,4-c]pyridin-5-yl)pyridin-3-yl)-N,N-dimethylmethanamine], the IC50 in test [1] was 290 nM. The EC50 in test [2] came to 745 nM.

`CCCC(=O)Nc1cncc(-c2cc3c(-c4nc5c(-c6cccc(F)c6)ccnc5[nH]4)n[nH]c3cn2)c1` [Compound 17, N-(5-(3-(7-(3-Fluorophenyl)-3H-imidazo[4,5-b]pyridin-2-yl)-1H-pyrazolo[3,4-c]pyridin-5-yl)pyridin-3-yl)butyramide] returned an IC50 in test [1] of 59.7 nM. In addition, in test [2], the EC50 was not above 9 nM.

In turn, `O=C(Nc1cncc(-c2cc3c(-c4nc5c(-c6cccc(F)c6)ccnc5[nH]4)n[nH]c3cn2)c1)C1CC1` [Compound 19, N -(5-(3-(7-(3-Fluorophenyl)-3H-imidazo[4,5-b]pyridin-2-yl)-1H-pyrazolo[3,4-c]pyridin-5-yl)pyridin-3-yl)cyclopropanecarboxamide] showed an IC50 in test [1] of 46.5 nM. For the same compound, the EC50 in test [2] amounted to 301 nM.

Take `Fc1ccc(-c2ccnc3[nH]c(-c4n[nH]c5cnc(-c6cncc(CN7CCCC7)c6)cc45)nc23)cc1` [Compound 40, 3-(7-(4-Fluorophenyl)-3H-imidazo[4,5-b]pyridin-2-yl)-5-(5-(pyrrolidn-1-ylmethyl)pyridin-3-yl)-1H-pyrazolo[3,4-c]pyridine]: in test [1], the IC50 turned out to be 321 nM. Moreover, the EC50 in test [2] is 348 nM.

In test [1], `CCCC(=O)Nc1cncc(-c2cc3c(-c4nc5c(-c6ccc(F)cc6)ccnc5[nH]4)n[nH]c3cn2)c1` [Compound 43, N-(5-(3-(7-(4-Fluorophenyl)-3H-imidazo[4,5-b]pyridin-2-yl)-1H-pyrazolo[3,4-c]pyridin-5-yl)pyridin-3-yl)butyramide] returned a 50% inhibitory concentration (IC50) of 21.2 nM. For the same compound, the EC50 in test [2] came out at 69 nM.

With `O=C(Nc1cncc(-c2cc3c(-c4nc5c(-c6ccc(F)cc6)ccnc5[nH]4)n[nH]c3cn2)c1)C1CCC1` [Compound 46, N-(5-(3-(7-(4-Fluorophenyl)-3H-imidazo[4,5-b]pyridin-2-yl)-1H-pyrazolo[3,4-c]pyridin-5-yl)pyridin-3-yl)cyclobutanecarboxamide], the IC50 in test [1] turned out to be 50.8 nM. The EC50 in test [2] was 240 nM.

Compound `Fc1ccc(-c2ccnc3[nH]c(-c4n[nH]c5cnc(-c6cncnc6)cc45)nc23)cc1` [Compound 52, 3-(7-(4-Fluorophenyl)-3H-imidazo[4,5-b]pyridin-2-yl)-5-(pyrimidin-5-yl)-1H-pyrazolo[3,4-c]pyridine] came in with an IC50 in test [1] of 65.3 nM. Further, in test [2], the EC50 was found to be 259 nM.

Take `Nc1cncc(-c2cc3c(-c4nc5c(-c6ccccc6F)ccnc5[nH]4)n[nH]c3cn2)c1` [Compound 55, 5-(3-(7-(2-Fluorophenyl)-3H-imidazo[4,5-b]pyridin-2-yl)-1H-pyrazolo[3,4-c]pyridin-5-yl)pyridin-3-amine]: the IC50 in test [1] was 26.8 nM. Moreover, the EC50 in test [2] was determined as 20 nM.

With `CC(C)(C)C(=O)Nc1cncc(-c2cc3c(-c4nc5c(-c6ccccc6F)ccnc5[nH]4)n[nH]c3cn2)c1` [Compound 60], in test [1], the IC50 is 45.5 nM. In addition, the EC50 in test [2] was not above 9 nM.

In test [1], `CCCC(=O)Nc1cncc(-c2cc3c(-c4nc5c(-c6ccccc6F)ccnc5[nH]4)n[nH]c3cn2)c1` [Compound 69, N-(5-(3-(7-(2-Fluorophenyl)-3H-imidazo[4,5-b]pyridin-2-yl)-1H-pyrazolo[3,4-c]pyridin-5-yl)pyridin-3-yl)butyramide] gave an IC50 of 128 nM. Also, the concentration for a half-maximal effect (EC50) in test [2] was 210 nM.

`O=C(Nc1cncc(-c2cc3c(-c4nc5c(-c6ccccc6F)ccnc5[nH]4)n[nH]c3cn2)c1)C1CCCC1` [Compound 73, N-(5-(3-(7-(2-Fluorophenyl)-3H-imidazo[4,5-b]pyridin-2-yl)-1H-pyrazolo[3,4-c]pyridin-5-yl)pyridin-3-yl)cyclopentanecarboxamide] returned an IC50 in test [1] of 36.9 nM. The EC50 in test [2] turned out to be 324 nM.

Compound `c1cncc(-c2cc3c(-c4nc5c(-c6cccnc6)ccnc5[nH]4)n[nH]c3cn2)c1` [Compound 82, 5-(Pyridin-3-7-(pyridin-3-yl)-3H-imidazo[4,5-b]pyridin-2-yl)-1H-pyrazolo[3,4-c]pyridine] came in with an IC50 in test [1] of more than 10000 nM. Further, the EC50 in test [2] was not above 9 nM.

With `CC(C)C(=O)Nc1cncc(-c2cc3c(-c4nc5c(-c6cccnc6)ccnc5[nH]4)n[nH]c3cn2)c1` [Compound 87, N-(5-(3-(7-(Pyridin-3-yl)-3 H-imidazo[4,5-b]pyridin-2-yl)-1H-pyrazolo[3,4-c]pyridin-5-yl)pyridin-3-yl)isobutyramide], in test [1], the IC50 is more than 10000 nM. Also, the EC50 in test [2] was not below 9990 nM.

Take `CC(C)Nc1cncc(-c2cc3c(-c4nc5c(-c6cccnc6)ccnc5[nH]4)n[nH]c3cn2)c1` [Compound 90, N-Isopropyl-5-(3-(7-(pyridin-3-yl)-3H-imidazo[4,5-b]pyridin-2-yl)-1H-pyrazolo[3,4-c]pyridin-5-yl)pyridin-3-amine]: the IC50 in test [1] was more than 10000 nM. Moreover, the EC50 in test [2] is not below 9990 nM.

For the compound `c1ccc(CNCc2cncc(-c3cc4c(-c5nc6c(-c7cccnc7)ccnc6[nH]5)n[nH]c4cn3)c2)cc1` [Compound 101], the IC50 in test [1] is more than 10000 nM. In addition, the EC50 in test [2] was not above 9 nM.

`CCNCc1cncc(-c2cc3c(-c4nc5c(-c6ccccn6)ccnc5[nH]4)n[nH]c3cn2)c1` [Compound 136, N-((5-(3-(7-(Pyridin-2-yl)-3H-imidazo[4,5-b]pyridin-2-yl)-1H-pyrazolo[3,4-c]pyridin-5-yl)pyridin-3-yl)methyl)ethanamine]: the IC50 in test [1] is 745 nM. The EC50 in test [2] is not above 9 nM.

As for `O=C(Nc1cncc(-c2cc3c(-c4nc5c(-c6ccccn6)ccnc5[nH]4)n[nH]c3cn2)c1)c1ccccc1` [Compound 141, N-(5-(3-(7-(Pyridin-2-yl)-3H-imidazo[4,5-b]pyridin-2-yl)-1H-pyrazolo[3,4-c]pyridin-5-yl)pyridin-3-yl)benzamide], the IC50 in test [1] is more than 10000 nM. Moreover, the EC50 in test [2] was not below 9990 nM.

In turn, `CCCCC(=O)Nc1cncc(-c2cc3c(-c4nc5c(-c6ccccn6)ccnc5[nH]4)n[nH]c3cn2)c1` [Compound 148, N-(5-(3-(7-(Pyridin-2-yl)-3H-imidazo[4,5-b]pyridin-2-yl)-1H-pyrazolo[3,4-c]pyridin-5-yl)pyridin-3-yl)pentanamide] had an IC50 in test [1] of more than 10000 nM. Besides, the EC50 in test [2] was not above 9 nM.

These data come from patent US9815854B2, “3-(3H-imidazo[4,5-B]pyridin-2-yl)-1H-pyrazolo[3,4-C]pyridine and therapeutic uses thereof” (Samumed, LLC, priority 2014, dated 2017).
